Measured values reported in US20020091086A1, “Peptides that block viral infectivity and methods of use thereof” (priority 1999, published 2002).
Peptide text beside a SMILES is read from it.

Experiments:
HIV-1 = settings: Experiment 6; Day 7 HIV-1; 100 μM; HUT78 cells
Procedure: In experiment 6 (Table 7 and FIG. 1), approximately 200,000 HUT78 cells were infected with HIV-1 at 25 TCID50 to test the inhibitory effect of GPG-NH2, RQG-NH2, KQG-NH2, ALG-NH2, GVG-NH2, VGG-NH2, ASG-NH2, SLG-NH2, and SPT-NH2. The HUT cells were resuspended in lml of RPMI 1640 medium supplemented with 10% (v/v) heat-inactivated fetal bovine serum (FBS, GIBCO), penicillin (100 u/ml), streptomycin (100 u/ml) and Polybrene (Sigma, 2 μg/ml) with or without the presence of the different small peptides (100 μM) mentioned above. Thereafter, the HIV-1 virus was added at 25 TCID50 in a volume of 20 μl. Cells were incubated with the virus at 37° C. for one hour and, subsequently, the cells were pelleted at 170×g for seven minutes. The cells were then washed three times in RPMI medium without peptides at room temperature by cell sedimentation at 170×g for seven minutes, as above. After the final wash, the cells were resuspended in RPMI culture medium containing the peptides in 24-well plate (Costar corporation) and were kept at 37° C. in 5% CO2 with humidity. Culture supernatants were collected when medium was changed at day 4, 7, and 11 post infection and viral p24 production was monitored by using an HIV-1 p24 ELISA kit (Abbott Laboratories, North Chicago, USA).

[1] = single intravenous dose toxicity in adult mice; format: in vivo; settings: intravenous injection in the tail vein, up to 1 g per kilo bodyweight
Procedure: (§1) In this example, the results from several in vivo toxicology studies on small peptides administered in large doses to rodents are presented. In a first experiment, a large single dose of small peptide was delivered to mice and the toxic effects were analyzed. […] In a second experiment, several doses of varying amounts of a small peptide were delivered to mice for almost three weeks. Groups of mice (five mice in each group) were given intraperitoneal injections of GPG-NH2 (0.01, 0.1 and 1 g per kilo bodyweight and day, respectively) starting at an age of 6 days. Daily injections were continued for 18 days. […] In a similar experiment, a four week toxicology study of GPG-NH2 was performed by Scantox A/S in Denmark. GPG-NH2 was given orally to rats at doses up to 1 g per kilo bodyweight per day for twenty eight days.

HIV-1Bru wild-type = assay: infectivity in MT-2 cells, p24 ELISA, wild-type; format: cell-based
Procedure: Accordingly, the ability of GPG-NH2 to inhibit the infectivity of wild-type and V3-loop deletion mutants (GPG domain) in MT-2 cells was determined. In these experiments, approximately 200,000 MT-2 cells were infected with HIV-1Bru wild-type and GPG-deleted mutants mp8 and mp10 at 25 TCID50 to test the inhibitory effect of GPG-NH2 The MT-2 cells were resuspended in 1 ml of RPMT 1640 medium supplemented with 10% (v/v) heat-inactivated fetal bovine serum (FBS, GIBCO), penicillin (100μ/ml), streptomycin (100μ/ml) and Polybrene (Sigma 2 μg/ml) with or without the presence of GPG-NH2 at concentration 20 of μM and 100 μM. Thereafter, viruses were added at 25 TCID50 in a volume of 20-30 μl. Cells were incubated with virus at 37° C. for 16 hr then loosely pelleted by centrifugation at 170×g for 7 minutes. The cells were then washed three times in RPMI medium without peptides at room temperature by cell sedimentation at 170×g for 7 minutes as above. After the final wash, the cells were resuspended in RPMI culture medium in 24-well plate (Costar corporation) then kept at 37° C. in 5% CO2 with humidity. Culture supernatants were collected when medium was changed at day 4, 7, 11 and 14 post infection. To monitor the replication of virus, HIV-1 p24 antigen protein in the supernatants from day 7 and 14 was assayed by a ELISA kit (Abbott Laboratories) which has a linear dose-response range from 20 pg to 640 pg of p24 per ml and the p24 amount can be determined with aid of the regression line.

[2] = 18 day intraperitoneal toxicity in mice; format: in vivo; settings: intraperitoneal 0.01, 0.1 and 1 g per kilo bodyweight and day, 18 days from age 6 days
Procedure: as §1

recombinant gp120 = molecular target: T1, recombinant gp120 (Human immunodeficiency virus type 1 group M subtype B, UniProt P03375); assay: dialysis-based binding assay with 14C-GPG-NH2, gp120; set-up: species or system HIV-1; settings: dialysis 2 days at 4° C. against 27.5 μM 14C-GPG-NH2; buffer 1.816
T1 construct: recombinant proteins p24 and gp120 (gifts from the AIDS program, NCIB); purchased AIDS program, NCIB (gift, not bought)
Procedure: A dialysis-based binding assay was conducted using a dialysis membrane with a pore size of less than 10 kD. (Slide-A-Lyzer, Pierce). Fifty microliters of a 10 μM stock of the recombinant proteins p24 and gp120 (gifts from the AIDS program, NCIB) and BSA (Sigma) were introduced into separate dialysis membranes and the proteins were dialyzed at 4° C. for 2 days against a 500 ml solution composed of 150 mM NaCl and 50 mM Tris-HCl, pH 7.4 buffer and 27.5 μM of ^14C-GPG-NH2 (Amersham Ltd. UK). Subsequently, ten or five microliter aliquots of the dialyzed p24, gp120, and BSA were removed and mixed with 3 ml of ReadySafe (Beckman) in a scintillation vial. The C^14 was then detected by scintillation counting.

SMILES: NCC(=O)N1CCC[C@H]1C(=O)NCC(N)=O [GPG-NH2, glycyl-prolyl-glycine amide] (H-Gly-Pro-Gly-NH2)
- p24 (HIV-1): 560 pg/mL
- reduction (%) (HIV-1): 97%
- toxic effects [1]: no apparent toxic effects
- p24 (HIV-1Bru wild-type; GPG 20 μM, Day 7, WT): 23900 pg/mL
- reduction (%) (HIV-1Bru wild-type; GPG 20 μM, Day 7, WT): 29%
- p24 (HIV-1Bru wild-type; GPG 20 μM, Day 14, WT): 223000 pg/mL
- reduction (%) (HIV-1Bru wild-type; GPG 20 μM, Day 14, WT): 38%
- p24 (HIV-1Bru wild-type; GPG 100 μM, Day 7, WT): 3390 pg/mL
- reduction (%) (HIV-1Bru wild-type; GPG 100 μM, Day 7, WT): 90%
- p24 (HIV-1Bru wild-type; GPG 100 μM, Day 14, WT): 181000 pg/mL
- reduction (%) (HIV-1Bru wild-type; GPG 100 μM, Day 14, WT): 49%
- influence on the mice compared to controls [2]: no significant influence
- radioactive GPG-NH2 associated with gp120 (recombinant gp120): 1.745 μCi/ml
